Measurements published in US6855843B2, “Inhibitors of α4 mediated cell adhesion” (Tanabe Seiyaku Co., Ltd., priority 1998, dated 2005).

Tests used:
[1] = target: T1, α4β7 (adhesion of RPMI cells to CS-1) (Homo sapiens, UniProt P13612+P26010); experiment: RPMI-CS-1 cell adhesion assay; format: cell-based; details: adhesion of RPMI B-cell line (expresses α4β7) to CS-1 peptide coated microwells; read-out: RPMI-CS-1 IC50 value range
T1 construct: endogenous in cells
T1 sequence (P13612 34-1032): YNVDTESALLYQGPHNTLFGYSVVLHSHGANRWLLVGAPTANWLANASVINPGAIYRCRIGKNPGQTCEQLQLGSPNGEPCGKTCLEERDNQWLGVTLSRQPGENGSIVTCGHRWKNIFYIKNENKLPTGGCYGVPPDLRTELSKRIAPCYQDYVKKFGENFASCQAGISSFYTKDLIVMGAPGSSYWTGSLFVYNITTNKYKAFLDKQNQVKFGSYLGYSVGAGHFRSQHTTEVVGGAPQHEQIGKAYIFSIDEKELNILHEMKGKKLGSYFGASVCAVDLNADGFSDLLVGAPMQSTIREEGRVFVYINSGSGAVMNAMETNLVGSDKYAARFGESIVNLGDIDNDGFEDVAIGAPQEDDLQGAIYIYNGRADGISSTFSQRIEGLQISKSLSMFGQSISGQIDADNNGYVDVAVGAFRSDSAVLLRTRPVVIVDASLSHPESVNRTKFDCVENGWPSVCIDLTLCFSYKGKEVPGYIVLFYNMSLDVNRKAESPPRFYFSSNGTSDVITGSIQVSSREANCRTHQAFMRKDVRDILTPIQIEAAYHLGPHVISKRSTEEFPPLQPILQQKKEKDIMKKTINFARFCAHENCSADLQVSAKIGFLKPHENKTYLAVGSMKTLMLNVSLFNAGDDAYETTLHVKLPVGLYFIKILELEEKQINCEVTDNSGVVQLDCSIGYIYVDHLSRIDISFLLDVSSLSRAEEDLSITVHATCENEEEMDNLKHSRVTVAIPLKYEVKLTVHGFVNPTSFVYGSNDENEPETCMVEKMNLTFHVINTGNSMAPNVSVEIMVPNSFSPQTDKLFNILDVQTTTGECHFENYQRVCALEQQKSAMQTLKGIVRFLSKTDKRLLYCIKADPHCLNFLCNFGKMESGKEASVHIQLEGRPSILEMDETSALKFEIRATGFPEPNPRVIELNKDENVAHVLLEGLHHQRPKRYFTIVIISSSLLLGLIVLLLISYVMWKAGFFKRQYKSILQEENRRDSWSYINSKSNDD
T1 sequence (P26010 20-798): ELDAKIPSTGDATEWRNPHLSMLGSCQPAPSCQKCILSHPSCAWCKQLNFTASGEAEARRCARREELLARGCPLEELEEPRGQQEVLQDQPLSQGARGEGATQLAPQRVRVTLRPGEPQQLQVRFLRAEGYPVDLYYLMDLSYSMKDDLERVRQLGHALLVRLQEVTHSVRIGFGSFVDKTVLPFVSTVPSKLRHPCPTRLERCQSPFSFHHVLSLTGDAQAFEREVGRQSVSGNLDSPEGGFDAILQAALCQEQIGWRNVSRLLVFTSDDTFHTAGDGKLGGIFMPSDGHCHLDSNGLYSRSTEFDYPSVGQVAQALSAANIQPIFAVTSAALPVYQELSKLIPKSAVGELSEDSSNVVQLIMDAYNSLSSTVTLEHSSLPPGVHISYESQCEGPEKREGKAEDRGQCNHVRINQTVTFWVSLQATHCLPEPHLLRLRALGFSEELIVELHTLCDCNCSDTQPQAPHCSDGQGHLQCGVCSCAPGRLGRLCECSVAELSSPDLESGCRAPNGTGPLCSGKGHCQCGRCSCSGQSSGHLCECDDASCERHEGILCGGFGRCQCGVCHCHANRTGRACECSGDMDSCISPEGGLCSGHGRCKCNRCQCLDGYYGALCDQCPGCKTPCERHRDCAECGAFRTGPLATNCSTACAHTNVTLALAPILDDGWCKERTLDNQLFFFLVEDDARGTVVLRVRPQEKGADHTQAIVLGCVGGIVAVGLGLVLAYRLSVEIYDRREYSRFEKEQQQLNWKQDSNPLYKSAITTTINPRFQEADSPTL

| Structure (SMILES) | melting point [°C] | IC50 [1] [nM] |
| --- | --- | --- |
| COc1ccc(OC)c(-c2ccc(C[C@H](NC(=O)c3c(Cl)cccc3Cl)C(=O)O)cc2C(C)O)c1OC (stereo partly shown) [Example 340] | 121 to 123 | < 300 |
| CCC(O)c1cc(C[C@H](NC(=O)c2c(Cl)cccc2Cl)C(=O)O)ccc1-c1ccccc1OC (stereo partly shown) [Example 341] | 117 to 119 | < 300 |
| CCCCC(O)c1cc(C[C@H](NC(=O)c2c(Cl)cccc2Cl)C(=O)O)ccc1-c1ccccc1OC (stereo partly shown) [Example 342] | 158 to 159 | < 300 |
| CON=C(C)c1cc(C[C@H](NC(=O)c2c(Cl)cccc2Cl)C(=O)O)ccc1-c1ccccc1OC [Example 352, N-(2,6-Dichlorobenzoyl)-3-[1-(methoxyimino)ethyl]-4-(2-methoxyphenyl)-L-phenylalanine] | 106.8 | 300 to 1000 |
| CCOC(=O)[C@H](Cc1ccc(-c2c(OC)cc(CN3CCCCC3)cc2OC)cc1)NC(=O)c1c(F)cccc1F [Example 354] | 150 | < 300 |
